Test results as given in patent US11540515B2, “Use of dialkoxybenzenes for control of honey bee mite varroa destructor” (Simon Fraser University, priority 2018, dated 2023).

Tests used:
Varroa = experiment: Choice bioassay (forager vs nurse bee) in petri dish; assay type: in vivo, Varroa destructor; conditions: in presence of compound, monitored for 3 hours
Experimental: Functional activity of the compound was performed using choice bioassay. Briefly, in the presence of the synthetic compound or solvent as a control, the mites were given a choice of two bees (a forager and a nurse) in a petri dish (90 mm diameter and 17 mm deep glass). The movement of Varroa and its host preference were monitored at every hour for 3 hours.

Varroa mites = experiment: Example 2 dose response assay on 10 mites per plate; assay type: in vivo, Varroa destructor; conditions: doses in microgram
Experimental: The experiments were conducted in glass petri dish under control environment as described above in Example 1. Two sets of experiments were conducted compound 3c{3,6}:
1. Dose response assay on 10 mites per plate. Doses are in microgram.
In the first assay the percentage of dead mites as function of exposure time to different quantities of the compound was measured. […] The effective doses are relatively high.

honey bees = experiment: Bee mortality in hoarding cages, 3c{3,6} sensed by smell; assay type: in vivo, Apis mellifera
Experimental: 3c{3,6} sensed by smell: Bees were maintained in the classic hoarding cages. The test was conducted on twenty freshly collected bees in hoarding cages as above. The method that was used for screening potentially harmful compounds was as described, for example, in Medrzycki et al., 2013 (J. Apicultural Res. 52 (4): UNSP 52.4.14, http://dx.doi.org/10.3896/IBRA.1.52.4.14, incorporated herein by reference in its entirety. The bees were provided with water and candy at lib. The experiments were conducted in ten sets in the presence of 30 μl of hexane containing 300 μg of the 3c{3,6} compound presented in Parafilm (5×5 cm); 30 μl of pure hexane was used for control. The experimental and control cages were kept in separate incubators at (28-30° C.) and RH (50-70%) and the bee mortality rate was recorded at 24, 48 and 72 hours. Survival of bees in control and treated groups at the end was similar (79-90%).

Varroa destructor mites = experiment: Example 3 paralysis assays in petri dishes (dose response, screen, blends); assay type: in vivo
Experimental: Paralysis assays. These assays were done in 10 cm glass Petri dishes. A 3×3 cm piece of Parafilm was stuck to the lid of the dish, in the middle. The Parafilm received […], either pure (controls) or with the compound (treatments). The bottom of the dish received one freshly thawed nurse and one freshly thawed forager, placed ˜3 cm from the center of the dish. One mite was placed between the nurse and the forager, the lid was closed and groups of dishes were placed in an incubator at 30° C. Humidity levels were kept at around 35-40%.
Observation times were 3 h and 5 h. Mites were scored for whether the mite could move normally, was paralyzed (had difficulty moving) or dead (not moving).
Each assay was done in 5 technical replicates, in two biological replicates. Thus, each biological replicate was scored out of 5.
Experiments were performed in the dishes: i) dose response assays with a single compound at different doses of compound on the Parafilm (1 ng, 10 ng, 100 ng, 1 μg, 10 μg, 100 μg, 1 mg and 10 mg), ii) a screen with six compounds, all at a 1 mg dose, iii) an assay with blends of compounds 3c{3,6} and 3c{6,6}, and iv) one assay without bees (only to check for mite paralysis and death), with compounds 3c{3,6} and 3c{6,6}(pure or 1:1 blend), at 0.5 and 1 mg doses.

[1] = system: Varroa mites in honey bee colony; experiment: Colony test with solid 3c{3,6} in organza bags; assay type: in vivo, Varroa destructor; conditions: after each addition of solid compound in sachets
Experimental: Colony test. One colony of two supers was treated with solid 3c{3,6}, delivered in organza bags. The colony was otherwise healthy (apart from having Varroa mites), and the bee cluster reached over both boxes. Above the top box was placed a queen excluder and a top-feeding box. The following treatments were done: i) Day 1: 4×60 mg with bags placed above the cluster in the top box (below the queen excluder) only; ii) After 30 days: 4×60 mg with bags placed above the cluster in the top box (below the queen excluder) only; iii) After an additional 14 days, 4×100 mg with two bags placed on top of the lower box (i.e. between the two boxes) and two bags placed on top of the cluster on the top box (just below the queen excluder) iv) After an additional 7 days, 4×100 mg was added and the bags from the previous week were kept in. On the third treatment two Pasteur pipettes with Porapak (wedged between glass wool plugs in the pipette) were installed, one in the middle of the top cluster, the other on the edge of the cluster. These were removed. The colony was fitted with a screened bottom platform and a white Varroa counting drawer underneath the screen. Mites on the counting drawer board were counted every few days.
Porapak cartridges were extracted with hexane:ethyl acetate (4:1) with 40 ng/μL of 1,4-dimethoxybenzene as internal standard. […]

In the case of C=CCOc1ccc(OCCC)cc1 [3c{3,6}, 1-allyloxy-4-propoxybenzene], the “ability of Varroa to reach any host” value (Varroa) is reported as “decreased”, the “percentage of dead mites as function of exposure time to different quantities (acaricidal effect, FIG. 1)” value (Varroa mites) is reported as “clear and it is dose dependent” and the “Survival of bees at the end” value (honey bees; 300 μg in 30 μl hexane on Parafilm, 72 hours, control and treated groups similar) is reported as 79-90%. For the same compound, the “lethal effect to the honey bees” value (honey bees; in vivo) was “No lethal effect”, the “paralysis and mite death in screen” value (Varroa destructor mites; 1 mg dose, 3 h) was “most reliable mite paralysis” and the “net paralysis+death of mites, comparison of compounds” value (Varroa destructor mites; 0.5 and 1 mg/treatment) was “more active than 3c{6,6}”. The “EC50 for paralysis and eventual death of mites” value (Varroa destructor mites; neat compound on the source, vapors only, 3 h) was 41.5 µg and the “number of mites found on the bottom board per day” value [1] was “spike in the number of mites”.
